Experimental data taken from patent US12012639B2, “Processes for isolation and recovery of C5 sugars” (University of Louisville Research Foundation, Inc., priority 2017, dated 2024).

Columns and labels:
[1] = solubility in water; format: physicochemical
[2] = solubility in ethyl acetate; format: physicochemical; details: at 25° C.

solubility of PBA in water ([1]; at 25° C.) [g PBA per 100 g H2O]	volume of ethyl acetate that dissolves 1 gram [2] [mL]	solubility in H2O (in words) ([1]; H2O)	SMILES
2.5	–	–	OB(O)c1ccccc1 [PBA, phenyl boronic acid, reference compound]
–	5	extremely insoluble	c1ccc(B2OCC3OC4OB(c5ccccc5)OC4C3O2)cc1 (stereo not drawn) [XDE, xylose phenylboronic diester]
